Source: PubChem BioAssay (NCI)
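1) Cells in 96-well plates. 2) Compound, 48 h, 5 concentrations. 3) Linear interpolation between surrounding doses. 4) Unreached endpoint = highest concentration. TGI is the concentration that stops growth completely.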

Assays:
Test in all cases: inhibition of tumour cell growth, NCI panel, 48 h
[1] = tested on: 786-0 renal
[2] = tested on: A498 renal
[3] = tested on: A549 NSCLC
[4] = tested on: ACHN renal
[5] = tested on: BT-549 breast
[6] = tested on: CAKI-1 renal
[7] = tested on: COLO 205 colon
[8] = tested on: DU-145 prostate
[9] = tested on: EKVX NSCLC
[10] = tested on: HCT-116 colon
[11] = tested on: HCT-15 colon
[12] = tested on: HL-60(TB) leukemia
[13] = tested on: HOP-62 NSCLC
[14] = tested on: HOP-92 NSCLC
[15] = tested on: HS 578T breast
[16] = tested on: HT29 colon
[17] = tested on: IGROV1 ovarian
[18] = tested on: K-562 leukemia
[19] = tested on: KM12 colon
[20] = tested on: LOX IMVI melanoma
[21] = tested on: M14 melanoma
[22] = tested on: MALME-3M melanoma
[23] = tested on: MCF7 breast
[24] = tested on: MDA-MB-231 breast
[25] = tested on: MDA-MB-435
[26] = tested on: MDA-N
[27] = tested on: MOLT-4 leukemia
[28] = tested on: NCI-H226 lung
[29] = tested on: NCI-H23 lung
[30] = tested on: NCI-H460 lung
[31] = tested on: NCI-H522 lung
[32] = tested on: NCI/ADR-RES ovarian
[33] = tested on: OVCAR-3 ovarian
[34] = tested on: OVCAR-4 ovarian
[35] = tested on: OVCAR-5 ovarian
[36] = tested on: OVCAR-8 ovarian
[37] = tested on: PC-3 prostate
[38] = tested on: RPMI-8226 leukemia
[39] = tested on: RXF 393 renal
[40] = tested on: SF-268 CNS
[41] = tested on: SF-295 CNS
[42] = tested on: SF-539 CNS
[43] = tested on: SK-MEL-2 melanoma
[44] = tested on: SK-MEL-28 melanoma
[45] = tested on: SK-MEL-5 melanoma
[46] = tested on: SK-OV-3 ovarian
[47] = tested on: SN12C renal
[48] = tested on: SNB-19 CNS
[49] = tested on: SR leukemia
[50] = tested on: SW-620 colon
[51] = tested on: T-47D breast
[52] = tested on: TK-10 renal
[53] = tested on: U251 CNS
[54] = tested on: UACC-257 melanoma
[55] = tested on: UACC-62 melanoma
[56] = tested on: UO-31 renal
[57] = tested on: CCRF-CEM leukemia
[58] = tested on: HCC-2998 colon

Work on `Oc1ccc(Cc2cc(Cl)cc(Cl)c2O)cc1Cl` yielded a TGI [1] of 43 µM, a TGI [2] of 33.8 µM and a TGI [3] of 41.3 µM. For the same compound, the TGI [4] was 31.2 µM, the TGI [5] was 33.4 µM and the TGI [6] was 51.5 µM. The TGI [7] was 35 µM, the TGI [8] was 24.4 µM and the TGI [9] was 40.2 µM. It also gave a TGI [10] of 37.2 µM, a TGI [11] of 35.2 µM and a TGI [12] of 3.36 µM. For the same compound, the TGI [13] was 37.3 µM, the TGI [14] was 33.9 µM and the TGI [15] was 37.2 µM. For the same compound, the TGI [16] was 43.9 µM, the TGI [17] was 34.1 µM and the TGI [18] was 37.6 µM. For the same compound, the TGI [19] was 49.6 µM, the TGI [20] was 31.4 µM and the TGI [21] was 34 µM. The TGI [22] was 30.9 µM, the TGI [23] was 32.5 µM and the TGI [24] was 34.3 µM. For the same compound, the TGI [25] was 27.1 µM, the TGI [26] was 22.4 µM and the TGI [27] was 55.6 µM. For the same compound, the TGI [28] was 40.2 µM, the TGI [29] was 32.3 µM and the TGI [30] was 32.4 µM. The TGI [31] was 31.6 µM, the TGI [32] was 38.6 µM and the TGI [33] was 36.6 µM. It also gave a TGI [34] of 58.3 µM, a TGI [35] of 38.9 µM and a TGI [36] of 36.3 µM. For the same compound, the TGI [37] was 33.1 µM, the TGI [38] was 48.4 µM and the TGI [39] was 28.8 µM. The TGI [40] was 31 µM, the TGI [41] was 39.6 µM and the TGI [42] was 34.3 µM. It also gave a TGI [43] of 29.7 µM, a TGI [44] of 32.9 µM and a TGI [45] of 32.1 µM. The TGI [46] was 60.5 µM, the TGI [47] was 30.2 µM and the TGI [48] was 33.7 µM. For the same compound, the TGI [49] was 47.2 µM, the TGI [50] was 41.2 µM and the TGI [51] was 44.5 µM. For the same compound, the TGI [52] was 30.6 µM, the TGI [53] was 36.2 µM and the TGI [54] was 30.4 µM. The TGI [55] was 27.9 µM and the TGI [56] was 31 µM.

`CCOc1ccc2c(c1)c(=O)c1c(NCCN(CC)CC)ccc3nnn2c31` was tested, and the TGI [1] was > 49 µM, the TGI [2] was > 100 µM and the TGI [3] was > 55.5 µM. The TGI [4] was > 56.1 µM, the TGI [5] was > 100 µM and the TGI [6] was 41.6 µM. The TGI [57] was 25.7 µM, the TGI [7] was > 54 µM and the TGI [8] was 54.4 µM. The TGI [9] was > 100 µM, the TGI [58] was > 50.4 µM and the TGI [10] was > 44.9 µM. The TGI [11] was 48.2 µM, the TGI [13] was > 48.8 µM and the TGI [14] was > 100 µM. The TGI [15] was > 100 µM, the TGI [16] was 32 µM and the TGI [17] was 30.3 µM. The TGI [18] was > 66.2 µM, the TGI [19] was 37.1 µM and the TGI [20] was 32 µM. For the same compound, the TGI [21] was > 54.8 µM, the TGI [22] was 33.8 µM and the TGI [23] was > 68.7 µM. For the same compound, the TGI [24] was 58.5 µM, the TGI [25] was 32.5 µM and the TGI [26] was 35.7 µM. For the same compound, the TGI [27] was > 59.9 µM, the TGI [28] was > 100 µM and the TGI [29] was 38.6 µM. The TGI [30] was > 57.8 µM, the TGI [31] was 27.8 µM and the TGI [32] was > 54.2 µM. For the same compound, the TGI [33] was > 100 µM, the TGI [34] was 26.3 µM and the TGI [35] was > 54.8 µM. For the same compound, the TGI [36] was 65.8 µM, the TGI [37] was 49.7 µM and the TGI [38] was > 65.1 µM. The TGI [39] was 25.5 µM, the TGI [40] was > 80.2 µM and the TGI [41] was > 56.4 µM. The TGI [42] was 24.1 µM, the TGI [43] was > 100 µM and the TGI [44] was > 55 µM. For the same compound, the TGI [45] was 31.1 µM, the TGI [46] was > 100 µM and the TGI [47] was > 100 µM. For the same compound, the TGI [48] was > 100 µM, the TGI [49] was 50.1 µM and the TGI [50] was 31.5 µM. The TGI [51] was > 100 µM, the TGI [52] was 37.9 µM and the TGI [53] was > 58.2 µM. The TGI [54] was > 59.6 µM and the TGI [55] was > 100 µM.
